Data on 11 compounds can be found in PubChem BioAssay (NCI).

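Method: 48-hour compound exposure of cells in 96-well plates, five concentrations, linear interpolation of endpoints. The concentration for 50% growth inhibition is given as GI50. TGI is the concentration that stops growth completely.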

Test in all cases: DTP human tumour cell line panel, 48 h
Assay [1] deals with HCC-2998 colon.
Assay [2] deals with SN12C renal.
Assay [3] concerns DU-145 prostate.
The subject of assay [4] is M14 melanoma.
Assay [5] concerns OVCAR-3 ovarian.
Assay [6] relates to SK-MEL-2 melanoma.
For assay [7], the system named is OVCAR-5 ovarian.
In assay [8] the test system is SK-OV-3 ovarian.
Assay [9] concerns MDA-N.

On to `C(=N\Nc1ncc(-c2cc3cc4c(cc3o2)OCO4)s1)/c1c[nH]c2ccccc12`, for which the GI50 in assay [1] was 2.06 µM; in assay [2], 0.374 µM; in assay [3], 0.739 µM; in [4], 3.34 µM; in assay [5] it was 0.536 µM; in assay [6], 2.6 µM. Besides, the TGI in assay [1] was determined as 5.13 µM; in assay [2], 3.98 µM; in assay [3], 3.31 µM; in [4], 12.7 µM; in [5], 1.89 µM; in [6] it was 8.07 µM.

In the case of `O=C1C=Cc2c(Cl)sc(Cl)c21`, the TGI in [1] was 13.8 µM; in assay [2], > 100 µM; in assay [7] it was 24.8 µM; in [3], 5.29 µM; in [4] it was 3.99 µM; in assay [6], 5.32 µM. This compound also had a TGI in [8] of 28.5 µM.

`CC(=O)Nc1ccc(S(=O)(=O)Nc2nnc(S(N)(=O)=O)s2)cc1`: the TGI in assay [1], in [7], in [3], in assay [4] and in assay [8] was > 100 µM throughout.

As to `Cc1ccc(S(=O)(=O)NC(=O)NC(Cc2c[nH]c3ccccc23)C(=O)O)cc1` (stereo not drawn), the TGI in assay [2], in [7], in assay [3], in assay [4], in assay [9] and in assay [6] was > 100 µM throughout. Besides, the TGI in [8] is > 100 µM.

With `Oc1ccc2c(c1)-c1c(c3cc(O)ccc3n1CCN1CCOCC1)CC2`, the TGI was 32.6 µM in assay [1]; > 100 µM in assay [2]; > 100 µM in [7]; > 100 µM in assay [3]; 50.1 µM in assay [4]; 61.8 µM in assay [5]. Also, the TGI turned out to be 37.7 µM in assay [6] and 81.2 µM in assay [8].

In the case of `COc1cc(Oc2nc3ccccc3nc2C(=O)O)cc(OC)c1OC`, the TGI in assay [1], in assay [7], in assay [3], in assay [4], in [5] and in assay [6] was > 100 µM each time. The TGI in assay [8] is > 100 µM.

Regarding `COC12C=C/C(=C(/C(=O)OCc3ccncn3)C(=O)CCCCCCCCC3(OC)C=C/C(=C(/C(=O)OCc4ccncn4)C(=O)CCCCCCCC1)O3)O2`, the GI50 is 0.225 µM in [1]; 0.297 µM in [2]; 0.334 µM in [7]; 0.484 µM in assay [3]; 0.286 µM in assay [4]; 0.317 µM in [5]. For the same compound, the GI50 is 0.428 µM in assay [6] and 0.409 µM in [8]. The TGI in assay [1] was found to be 0.45 µM; in assay [2] it was 1.12 µM; in assay [7] it was 4.81 µM; in assay [3] it was 2.72 µM; in assay [4], 3.23 µM; in assay [5], 0.903 µM. Besides, the TGI in [6] was found to be 5.55 µM; in assay [8], 3.75 µM.

Turning to `CC(=O)Nc1ccc2c(C(=O)O)c(C)c(=O)[nH]c2n1`, the TGI in assay [2], in assay [7], in assay [3], in assay [4], in assay [9] and in [6] was > 100 µM each time. Also, the TGI in assay [8] was > 100 µM.

Consider `CCN1CCN(C(=O)[C@]23CC[C@@H](C)[C@H](C)[C@@H]2C2=CC[C@@H]4[C@@]5(C)C/C(=C/c6cccnc6)C(=O)C(C)(C)[C@@H]5CC[C@@]4(C)[C@]2(C)CC3)CC1`, for which the GI50 is 1.55 µM in [1]; 1.61 µM in assay [2]; 1.54 µM in [7]; 2.08 µM in assay [3]; 1.65 µM in assay [5]; 2.12 µM in assay [6]. Besides, the GI50 in assay [8] is 2.7 µM. Also, the TGI is 3 µM in assay [1]; 3.01 µM in [2]; 2.93 µM in assay [7]; 4.21 µM in assay [3]; 3.19 µM in assay [5]; 4.76 µM in assay [6]. Besides, the TGI in assay [8] came to 9.2 µM.

With `COc1cc(/C=C2\C[C@H]3[C@@H]4CC=C5C[C@@H](N6CCCC6)CC[C@]5(C)[C@H]4CC[C@]3(C)[C@H]2O)cc(OC)c1OC`, the TGI in assay [1] was determined as 20.7 µM; in assay [2] it was 29.6 µM; in [7], 24.4 µM; in assay [3] it was 32.1 µM; in assay [4], 4.74 µM; in [5], 31.2 µM. Besides, the TGI in [6] and in assay [8] was 35.9 µM in each case.

As to `CCN(CC)CCCCCCCCNc1c2ccc(Cl)cc2nc2ccc(OC)cc12`, the GI50 was 1.77 µM in assay [1]; 1.64 µM in assay [2]; 1.64 µM in assay [7]; 1.55 µM in assay [3]; 1.84 µM in assay [4]; 1.91 µM in assay [5]. Besides, the TGI in assay [1] amounted to 6.99 µM; in assay [2], 3.73 µM; in assay [7] it was 3.99 µM; in [3], 3.18 µM; in assay [4], 3.34 µM; in [5], 4.33 µM.

By GI50 is commonly meant the concentration that inhibits growth by half. As a reminder, the TGI is the concentration giving total growth inhibition. Read a low TGI as more potent growth arrest.
